Data reported in ChEMBL document CHEMBL3580659, “One-pot multicomponent synthesis of indole incorporated thiazolylcoumarins and their antibacterial, anticancer and DNA cleavage studies” (2015).

Columns and labels:
Type in all cases: functional
OVCAR-3 [1] = assay: Cytotoxicity against human OVCAR3 cells assessed as cell growth level at 10 uM after 48 hrs by sulforhodamine B assay
SF-295 = assay: Cytotoxicity against human SF295 cells assessed as cell growth level at 10 nM after 48 hrs by sulforhodamine B assay
SK-MEL-2 = assay: Cytotoxicity against human SK-MEL-2 cells assessed as cell growth level at 1 uM after 48 hrs by sulforhodamine B assay
PC-3 [2] = assay: Cytotoxicity against human PC3 cells assessed as cell growth level at 10 nM after 48 hrs by sulforhodamine B assay
MCF7 [3] = assay: Cytotoxicity against human MCF7 cells after 48 hrs by sulforhodamine B assay; settings: MCF7, 48 h
LOX IMVI = assay: Cytotoxicity against human LOXIMVI cells after 48 hrs by sulforhodamine B assay
CAKI-1 [4] = assay: Cytotoxicity against human CAKI-1 cells after 48 hrs by sulforhodamine B assay; settings: CAKI-1, 48 h
NCI-H23 = assay: Cytotoxicity against human NCI-H23 cells assessed as cell growth level at 1 uM after 48 hrs by sulforhodamine B assay
MOLT-4 = assay: Cytotoxicity against human MOLT4 cells assessed as cell growth level at 1 uM after 48 hrs by sulforhodamine B assay
OVCAR-4 [5] = assay: Cytotoxicity against human OVCAR4 cells assessed as cell growth level at 100 nM after 48 hrs by sulforhodamine B assay
[6] = Cytotoxicity against human NCI-ADR-RES cells assessed as cell growth level at 100 uM after 48 hrs by sulforhodamine B assay
HCT-15 [7] = assay: Cytotoxicity against human HCT15 cells assessed as cell growth level at 100 nM after 48 hrs by sulforhodamine B assay
NCI-H226 = assay: Cytotoxicity against human NCI-H226 cells after 48 hrs by sulforhodamine B assay; settings: NCI-H226, 48 h
OVCAR-3 [8] = assay: Cytotoxicity against human OVCAR3 cells assessed as cell growth level at 1 uM after 48 hrs by sulforhodamine B assay
SF-539 = assay: Cytotoxicity against human SF539 cells assessed as cell growth level at 10 nM after 48 hrs by sulforhodamine B assay
MCF7 [9] = assay: Cytotoxicity against human MCF7 cells assessed as cell growth level at 10 uM after 48 hrs by sulforhodamine B assay
HT-29 [10] = assay: Cytotoxicity against human HT-29 cells after 48 hrs by sulforhodamine B assay; settings: HT-29, 48 h
786-0 = assay: Cytotoxicity against human 786-0 cells assessed as cell growth level at 100 nM after 48 hrs by sulforhodamine B assay
HT-29 [11] = assay: Cytotoxicity against human HT-29 cells assessed as cell growth level at 10 nM after 48 hrs by sulforhodamine B assay
OVCAR-5 = assay: Cytotoxicity against human OVCAR5 cells after 48 hrs by sulforhodamine B assay; settings: OVCAR-5, 48 h
UACC-257 = assay: Cytotoxicity against human UACC257 cells assessed as cell growth level at 10 nM after 48 hrs by sulforhodamine B assay
CAKI-1 [12] = assay: Cytotoxicity against human CAKI-1 cells assessed as cell growth level at 10 nM after 48 hrs by sulforhodamine B assay
PC-3 [13] = assay: Cytotoxicity against human PC3 cells assessed as cell growth level at 100 nM after 48 hrs by sulforhodamine B assay
HOP-62 [14] = assay: Cytotoxicity against human HOP62 cells assessed as cell growth level at 10 uM after 48 hrs by sulforhodamine B assay
OVCAR-4 [15] = assay: Cytotoxicity against human OVCAR4 cells assessed as cell growth level at 100 uM after 48 hrs by sulforhodamine B assay
ACHN = assay: Cytotoxicity against human ACHN cells assessed as cell growth level at 100 nM after 48 hrs by sulforhodamine B assay
SNB-75 = assay: Cytotoxicity against human SNB75 cells assessed as cell growth level at 10 nM after 48 hrs by sulforhodamine B assay
PC-3 [16] = assay: Cytotoxicity against human PC3 cells after 48 hrs by sulforhodamine B assay; settings: PC-3, 48 h
HCT-15 [17] = assay: Cytotoxicity against human HCT15 cells assessed as cell growth level at 1 uM after 48 hrs by sulforhodamine B assay
NCI-H460 = assay: Cytotoxicity against human NCI-H460 cells assessed as cell growth level at 10 uM after 48 hrs by sulforhodamine B assay
MDA-MB-231 [18] = assay: Cytotoxicity against human MDA-MB-231/ATCC cells assessed as cell growth level at 100 nM after 48 hrs by sulforhodamine B assay
M14 = assay: Cytotoxicity against human M14 cells after 48 hrs by sulforhodamine B assay; settings: M14, 48 h
[19] = Cytotoxicity against human NCI-ADR-RES cells assessed as cell growth level at 10 uM after 48 hrs by sulforhodamine B assay
MDA-MB-231 [20] = assay: Cytotoxicity against human MDA-MB-231/ATCC cells assessed as cell growth level at 100 uM after 48 hrs by sulforhodamine B assay
RPMI-8226 = assay: Cytotoxicity against human RPMI8226 cells assessed as cell growth level at 1 uM after 48 hrs by sulforhodamine B assay
HOP-62 [21] = assay: Cytotoxicity against human HOP62 cells assessed as cell growth level at 100 uM after 48 hrs by sulforhodamine B assay
OVCAR-8 = assay: Cytotoxicity against human OVCAR8 cells assessed as cell growth level at 10 nM after 48 hrs by sulforhodamine B assay
[22] = read-out: LC50 (the source's name)
[23] = read-out: pLC50 (the source's name) (converted)

O=c1oc2ccccc2cc1-c1csc(N/N=C/c2c[nH]c3ccccc23)n1
Activity (OVCAR-3 [1]): -80.31% | Activity (SF-295): 93% | Activity (SK-MEL-2): 90% | Activity (PC-3 [2]): 105% | GI50 (MCF7 [3]; read-out: GI50): 2400 nM | CC50 (MCF7 [3]; [22]): > 100 µM | TGI (MCF7 [3]; read-out: TGI): 15.5 µM | GI50 (MCF7 [3]; read-out: pGI50 (converted)): 2400 nM | CC50 (MCF7 [3]; [23]): > 100 µM | TGI (MCF7 [3]; read-out: pTGI (converted)): 15.5 µM | GI50 (LOX IMVI; read-out: GI50): 1930 nM | CC50 (LOX IMVI; [22]): 6.71 µM | TGI (LOX IMVI; read-out: TGI): 3.6 µM | GI50 (LOX IMVI; read-out: pGI50 (converted)): 1910 nM | CC50 (LOX IMVI; [23]): 6.76 µM | TGI (LOX IMVI; read-out: pTGI (converted)): 3.63 µM | GI50 (CAKI-1 [4]; read-out: GI50): 1610 nM | CC50 (CAKI-1 [4]; [22]): > 100 µM | TGI (CAKI-1 [4]; read-out: TGI): 4.65 µM | GI50 (CAKI-1 [4]; read-out: pGI50 (converted)): 1620 nM | CC50 (CAKI-1 [4]; [23]): > 100 µM | TGI (CAKI-1 [4]; read-out: pTGI (converted)): 4.68 µM | Activity (NCI-H23): 83% | Activity (MOLT-4): 20% | Activity (OVCAR-4 [5]): 91% | Activity [6]: 8% | Activity (HCT-15 [7]): 96% | GI50 (NCI-H226; read-out: GI50): 2380 nM | CC50 (NCI-H226; [22]): > 100 µM | TGI (NCI-H226; read-out: TGI): 7.7 µM | GI50 (NCI-H226; read-out: pGI50 (converted)): 2400 nM | CC50 (NCI-H226; [23]): > 100 µM | TGI (NCI-H226; read-out: pTGI (converted)): 7.76 µM | Activity (OVCAR-3 [8]): 61% | Activity (SF-539): 95% | Activity (MCF7 [9]): 8.91% | GI50 (HT-29 [10]; read-out: GI50): 2010 nM | CC50 (HT-29 [10]; [22]): > 100 µM | TGI (HT-29 [10]; read-out: TGI): 5.55 µM | GI50 (HT-29 [10]; read-out: pGI50 (converted)): 2000 nM | CC50 (HT-29 [10]; [23]): > 100 µM | TGI (HT-29 [10]; read-out: pTGI (converted)): 5.5 µM | Activity (786-0): 82% | Activity (HT-29 [11]): 106% | GI50 (OVCAR-5; read-out: GI50): 2340 nM | CC50 (OVCAR-5; [22]): > 100 µM | TGI (OVCAR-5; read-out: TGI): 7.8 µM | GI50 (OVCAR-5; read-out: pGI50 (converted)): 2340 nM | CC50 (OVCAR-5; [23]): > 100 µM | TGI (OVCAR-5; read-out: pTGI (converted)): 7.76 µM | Activity (UACC-257): 96% | Activity (CAKI-1 [12]): 95% | Activity (PC-3 [13]): 102% | Activity (HOP-62 [14]): 11.3% | Activity (OVCAR-4 [15]): -24% | Activity (ACHN): 97% | Activity (SNB-75): 94% | GI50 (PC-3 [16]; read-out: GI50): 828 nM | CC50 (PC-3 [16]; [22]): 7.63 µM | TGI (PC-3 [16]; read-out: TGI): 2660 nM | GI50 (PC-3 [16]; read-out: pGI50 (converted)): 832 nM | CC50 (PC-3 [16]; [23]): 7.59 µM | TGI (PC-3 [16]; read-out: pTGI (converted)): 2630 nM | Activity (HCT-15 [17]): 84% | Activity (NCI-H460): 5.79% | Activity (MDA-MB-231 [18]): 97% | GI50 (M14; read-out: GI50): 1950 nM | CC50 (M14; [22]): 9.13 µM | TGI (M14; read-out: TGI): 4.22 µM | GI50 (M14; read-out: pGI50 (converted)): 1950 nM | CC50 (M14; [23]): 9.12 µM | TGI (M14; read-out: pTGI (converted)): 4.17 µM | Activity [19]: 24.9% | Activity (MDA-MB-231 [20]): -3% | Activity (RPMI-8226): 48% | Activity (HOP-62 [21]): -24% | Activity (OVCAR-8): 104%
